Assay results from US8258116B2, “Combination therapy for the treatment of HCV infection” (Vertex Pharmaceuticals Incorporated, priority 2007, dated 2012).
Read-outs that look alike come from different tables or passages of the source.

Key:
Format in all cases: cell-based
[1] = tested on: HCV NS3 protease variant replicon R155K; experiment: microbe, parasite or virus in culture
Description: (§1) Huh-7 cells were propagated in Dulbecco's modified Eagle's medium (DMEM, JRH Biosciences, Lenexa, Kans.) supplemented with 10% heat-inactivated FBS (fetal bovine serum), 2 mM L-glutamine, and nonessential amino acids (JRH). The cells were transfected with an in vitro transcribed HCV replicon RNA identical to replicon 1377neo/NS3-3′/wt as described by Lohmann et al. (1999). Stable cell clones were selected and maintained in the presence of 250 μg/mL G418 (Invitrogen, Carlsbad, Calif.). […] The HCV NS3 protease variant replicons were constructed in the background of the mADE wild-type replicon as described previously [Chao Lin et al., “In Vitro Resistance Studies of Hepatitis C Virus Serine Protease Inhibitors, VX-950 and BILN 2061: Structural Analysis Indicates Different Resistance Mechanisms,” Journal of Biological Chemistry, 279(17); pp. 17508-17514 (2004)]. The replicon cells were propagated in DMEM supplemented with 10% FBS, 2 mM L-glutamine, nonessential amino acids, and 250 μg/mL G418. The cells were split twice per week in fresh media upon reaching confluence. There are approximately 200-300 copies of HCV RNA per 24-2 replicon cell.
(§2) HCV replicon RNA from cells was measured using the Quantigene Discover XL kit (Panomics Inc., Fremont Calif.) as per the manufacturer's instructions. Briefly, compound-treated replicon cells were lysed and immobilized on to capture plates using HCV specific oligonucleotides (designed based on the 5′ UTR region of HCV 1b genome sequence AJ238799 in the GenBank database) over night and the relative amounts of captured RNA was measured using oligonucleotide probe sets as per the manufacturer's instructions.
(§3) On the day prior to the assay, 10,000 replicon cells were plated per well of a 96-well plate and allowed to attach and grow overnight in DMEM (Invitrogen, Carlsbad, Calif.) supplemented with 10% heat-inactivated FBS (JRH Biosciences, Lenexa, Kans.), 2 mM L-glutamine (Invitrogen), nonessential amino acids (Invitrogen) and 250 μg/ml G418 (Invitrogen). Next day, the medium was removed and antiviral agents that were serially diluted in DMEM containing 2% FBS and 0.5% DMSO (Sigma Chemical Co., St. Louis, Mo.) without G418, was added. The replicon cells were incubated with the antiviral agents for 48 h. HCV replicon RNA from cells was measured using the Quantigene Discover XL kit (Panomics Inc., Fremont Calif.) as per the manufacturer's instructions. Briefly, compound-treated replicon cells were lysed and immobilized onto capture plates using HCV specific oligonucleotides overnight and the relative amounts of captured RNA was measured using oligonucleotide probe sets as per the manufacturer's instructions. Unless indicated otherwise, each data point represents the average of three replicates. The IC50 is the concentration of the compound at which the HCV replicon RNA level in cells is reduced by 50% as compared to the untreated replicon cell controls. To monitor the effect of compounds on cell proliferation or cell viability, replicon cells were treated with serially diluted compounds for 48 h, after which cell viability was determined using a CellTiter Glo assay (Promega, Madison, Wis.). Each CC50 is derived from at least two replicates and is the concentration of the compound at which the number of viable cells is reduced by 50% as compared to untreated cell controls. The IC50 and CC50 was determined using 4-parameter curve fitting in the SoftMax Pro program (Molecular Devices, Sunnyvale, Calif.).
(§4) The sensitivity of NS3 protease variants to ribavirin and interferon was assessed in a 2-Day HCV Replicon IC50 Assay.

[2] = tested on: HCV NS3 protease variant replicon V36M; experiment: microbe, parasite or virus in culture
Description: as §1, §2, §3, §4

[3] = tested on: HCV NS3 protease variant replicon V36M+R155K; experiment: microbe, parasite or virus in culture; conditions: V36M-R155K; ratio of mutant IC50 to Wild type IC50 for the same inhibitor
Description: as §1, §2, §3, §4

[4] = tested on: HCV NS3 protease variant replicon T54A; experiment: microbe, parasite or virus in culture
Description: as §1, §2, §3, §4

[5] = tested on: HCV NS3 protease variant replicon V36A; experiment: microbe, parasite or virus in culture
Description: as §1, §2, §3, §4

[6] = tested on: HCV NS3 protease variant replicon A156V; experiment: 2-Day HCV Replicon IC50 Assay, A156V
Description: as §1, §2, §3, §4

[7] = tested on: HCV replicon Wild Type (mADE); experiment: 2-Day HCV Replicon IC50 Assay, wild type replicon; conditions: Wild Type replicon
Description: as §1, §2, §3, §4

[8] = tested on: HCV replicon cells (wild-type clone 24-2, Huh-7); experiment: 2-day Replicon assay with bDNA quantitation, checkerboard combination (Bliss independence / MacSynergy); conditions: VX-950 in the checkerboard experiment with the named polymerase inhibitor, read-out: VX-950 IC50
Description: Huh-7 cells were propagated in Dulbecco's modified Eagle's medium (DMEM, JRH Biosciences, Lenexa, Kans.) supplemented with 10% heat-inactivated FBS (fetal bovine serum), 2 mM L-glutamine, and nonessential amino acids (JRH). The cells were transfected with an in vitro transcribed HCV replicon RNA identical to replicon 1377neo/NS3-3′/wt as described by Lohmann et al. (1999). Stable cell clones were selected and maintained in the presence of 250 μg/mL G418 (Invitrogen, Carlsbad, Calif.). One of the clones, 24-2, was used as the wild-type in the subsequent HCV replicon assays for combination studies. The HCV NS3 protease variant replicons were constructed in the background of the mADE wild-type replicon as described previously [Chao Lin et al., “In Vitro Resistance Studies of Hepatitis C Virus Serine Protease Inhibitors, VX-950 and BILN 2061: Structural Analysis Indicates Different Resistance Mechanisms,” Journal of Biological Chemistry, 279(17); pp. 17508-17514 (2004)]. The replicon cells were propagated in DMEM supplemented with 10% FBS, 2 mM L-glutamine, nonessential amino acids, and 250 μg/mL G418. The cells were split twice per week in fresh media upon reaching confluence. There are approximately 200-300 copies of HCV RNA per 24-2 replicon cell.
as §2, §3
The effects of drug-drug combinations were evaluated using the Bliss independence model [W. R. Greco et al., “The search for synergy: a critical review from a response surface perspective,” Pharmacol. Rev., 47, pp. 331-385 (1995)]. The experimental data were analyzed by using MacSynergy, a three-dimensional analytical method developed by Prichard and Shipman [M. N. Prichard and C. […]

[9] = Hepatitis C virus, read-out: Avg. IC50 ± STDEV

**Q.** How did the IC50 [1, 9] turn out when `CCC[C@H](NC(=O)[C@@H]1[C@H]2CCC[C@H]2CN1C(=O)[C@@H](NC(=O)[C@@H](NC(=O)c1cnccn1)C1CCCCC1)C(C)(C)C)C(=O)C(=O)NC1CC1` [VX-950] was run?
**A.** 3.59 ± 0.283 µM

**Q.** What about the “Fold Change” value ([1]; R155K, ratio of mutant IC50 to Wild type IC50 for the same inhibitor) of the same compound?
**A.** 7.8 ± 0.6

**Q.** And the IC50 [2, 9]?
**A.** 3.38 ± 0.775 µM

**Q.** What about the “Fold Change” value ([2]; V36M, ratio of mutant IC50 to Wild type IC50 for the same inhibitor) of the same compound?
**A.** 7.3 ± 1.7

**Q.** And the “Fold Change” value [3]?
**A.** ≧65.2

**Q.** What about the IC50 [4, 9] of the same compound?
**A.** 3.04 ± 0.819 µM

**Q.** And the “Fold Change” value ([4]; T54A, ratio of mutant IC50 to Wild type IC50 for the same inhibitor)?
**A.** 6.6 ± 1.8

**Q.** And the IC50 [5, 9]?
**A.** 3.57 ± 1.05 µM

**Q.** What about the “Fold Change” value ([5]; V36A, ratio of mutant IC50 to Wild type IC50 for the same inhibitor) of the same compound?
**A.** 7.7 ± 2.3

**Q.** What about the “Fold Change” value ([6]; A156V, ratio of mutant IC50 to Wild type IC50 for the same inhibitor) of the same compound?
**A.** >65.2

**Q.** What about the IC50 [6, 9] of the same compound?
**A.** > 30 µM

**Q.** And the IC50 ([7]; Hepatitis C virus, Table 8, read-out: Avg. IC50 ± STDEV)?
**A.** 0.46 ± 0.101 µM

**Q.** What about the “Fold Change” value ([7]; ratio of IC50 to Wild type IC50 for the same inhibitor) of the same compound?
**A.** 1 ± 0.2

**Q.** What about the IC50 ([8]; Hepatitis C virus, Huh-7, 48 h) of the same compound?
**A.** 0.31 µM

**Q.** What about the IC50 ([8]; 48 h, with polymerase inhibitor of Formula I) of the same compound?
**A.** 0.42 µM

**Q.** And the IC50 ([8]; 48 h, with polymerase inhibitor of Formula II)?
**A.** 0.34 µM
